Results on one molecule are retold here after patent US7741363B2, “3-Acylindole derivatives, preparation and therapeutic use thereof” (Sanofi-Aventis, priority 2005, dated 2010).

For `Cc1c(C(=O)CC(C)(C)C)c2cccc(Cl)c2n1CCC[S+](C)[O-]` (stereo not shown), the melting point (commonly the temperature, or range, at which the solid turns liquid) is 123 °C.
